From patent US20210400967A1, “COMPOSITIONS COMPRISING PYRIDINE CARBOXYLATE HERBICIDES WITH GLYPHOSATE OR GLUFOSINATE” (Corteva Agriscience LLC, priority 2018, published 2021)

Experiments:
Type in all cases: in vivo
[1] = tested on: Brassica napus (winter rape); assay: Greenhouse postemergence herbicidal effect, winter rape (BRSNW); conditions: Example 6; Glufosinate 112.5 g ai/ha alone; 20-22 d
Source text: (§1) Greenhouse Trial Methodology—Evaluation of Postemergence Herbicidal Effect
(§2) Seeds of the desired test plant species were planted in a 90:10% v/v (volume/volume) mixture of PRO-MIX® BX (Premier Tech Horticulture, Quakertown, Pa., USA) and PROFILE® GREENS GRADE™ (Profile Products LLC, Buffalo Grove, Ill., USA) planting mixture, which typically has a pH of 5.2 to 6.2 and an organic matter content of at least 50 percent, in plastic pots with a surface area of 103.2 square centimeters (cm^2). In some aspects, to ensure good germination and healthy plants, a fungicide treatment and/or other chemical or physical treatment was applied. The plants were grown for 7-36 days (d) in a greenhouse with an approximate 14-hour (h) photo-period which was maintained at about 23° C. during the day and 22° C. during the night. Nutrients and water were added on a regular basis and supplemental lighting was provided with overhead metal halide 1000-Watt lamps as necessary. The plants were employed for testing when they reached the second or third true leaf stage.
(§3) Emulsifiable concentrates of each of each pyridine carboxylate herbicide (Compound A or Compound B) were prepared at 100 grams acid equivalent per liter (g ae/L). The emulsifiable concentrates also included a safener, cloquintocet-mexyl, at 120 grams active ingredient per liter (g ai/L). An aliquot of each emulsifiable concentrate was placed in a 25 mL glass vial and diluted with an aqueous mixture of 1.25% (v/v) ACTIROB® B esterified rapeseed oil (Bayer Crop Science, Research Triangle Park, N.C., USA) or MSO® Concentrate with LECI-TECH® methylated soybean oil (Loveland Products, Loveland, Colo., USA) to obtain concentrated stock solutions at the highest application rate for each herbicide, based upon a 12 milliliter (mL) application volume at a rate of 187 liters per hectare (L/ha). The concentrated stock solutions were further diluted with an aqueous mixture of 1.25% v/v ACTIROB® B or MSO® Concentrate with LECI-TECH® to obtain stock solutions at reduced application rates for each herbicide. Spray solutions of the herbicide combinations (Compound A or Compound B plus glyphosate or glufosinate) were prepared by adding weighed amounts or aliquots of the glyphosate or glufosinate to the stock solutions of Compound A or Compound B to form 12-mL spray solutions in two-way combinations.
(§4) The spray solutions were applied to the plant material with an overhead Mandel track sprayer equipped with 8002E nozzles calibrated to deliver 187 L/ha over an application area of 0.503 square meters (m^2) at a spray height of 18 inches (43 centimeters (cm)) above the average plant canopy. Control plants were sprayed in the same manner with the solvent blank. All pyridine carboxylate herbicide (component a) application rates are given as “g ae/ha” and all glyphosate or glufosinate (component b) application rates are given as “g ai/ha.”
(§5) The treated plants and control plants were placed in a greenhouse as described above and watered by sub-irrigation to prevent wash-off of the test compounds. After 20-22 d, the condition of the test plants as compared with that of the control plants was determined visually and scored on a scale of 0 to 100 percent where 0 corresponds to no injury and 100 corresponds to complete kill.

[2] = tested on: Polygonum convolvulus (wild buckwheat); assay: Greenhouse postemergence herbicidal effect, wild buckwheat (POLCO); conditions: 20-22 d
Source text: as §1, §2, §3, §4, §5

[3] = tested on: Sinapis arvensis (wild mustard); assay: Greenhouse postemergence herbicidal effect, wild mustard (SINAR); conditions: Example 6; Glufosinate 112.5 g ai/ha alone; 20-22 d
Source text: as §1, §2, §3, §4, §5

[4] = tested on: Salsola kali (Russian thistle); assay: Greenhouse postemergence herbicidal effect, Russian thistle (SASKR); conditions: Example 6; Glufosinate 112.5 g ai/ha alone; 20-22 d
Source text: as §1, §2, §3, §4, §5

Kochia scoparia (kochia) = assay: Greenhouse postemergence herbicidal effect, kochia (KCHSC); conditions: 20-22 d
Source text: as §1, §2, §3, §4, §5

[5] = tested on: Chenopodium album L. (common lambsquarters); assay: Greenhouse postemergence herbicidal effect, common lambsquarters (CHEAL); conditions: Glufosinate 112.5 g ai/ha alone, 20-22 d
Source text: as §1, §2, §3, §4, §5

[6] = tested on: Amaranthus retroflexus (pigweed); assay: Greenhouse postemergence herbicidal effect, pigweed (AMARE); conditions: Example 6; Glufosinate 112.5 g ai/ha alone; 20-22 d
Source text: as §1, §2, §3, §4, §5

[7] = tested on: Matricaria chamomilla (wild chamomile); assay: Greenhouse postemergence herbicidal effect, wild chamomile (MATCH); conditions: Example 6; Glufosinate 112.5 g ai/ha alone; 20-22 d
Source text: as §1, §2, §3, §4, §5

[8] = tested on: Cirsium arvense (Canadian thistle); assay: Greenhouse postemergence herbicidal effect, Canadian thistle (CIRAR); conditions: 20-22 d
Source text: as §1, §2, §3, §4, §5

[9] = tested on: Triticum aestivum (spring wheat); assay: Greenhouse postemergence phytotoxicity on crop, spring wheat (TRZAS); conditions: Example 6; Glufosinate 112.5 g ai/ha alone; 20-22 d
Source text: as §1, §2, §3, §4, §5

[10] = tested on: Hordeum vulgare (spring barley); assay: Greenhouse postemergence phytotoxicity on crop, spring barley (HORVS); conditions: Example 6; Glufosinate 112.5 g ai/ha alone; 20-22 d
Source text: as §1, §2, §3, §4, §5

[11] = tested on: Brassica napus (spring rape); assay: Greenhouse postemergence herbicidal effect, spring rape (BRSNN); conditions: Example 4; Glufosinate 112.5 g ai/ha alone; 20-22 d
Source text: as §1, §2, §3, §4, §5

[12] = tested on: Setaria faberi (giant foxtail); assay: Greenhouse postemergence herbicidal effect, giant foxtail (SETFA); conditions: Example 4; Glufosinate 112.5 g ai/ha alone; 20-22 d
Source text: as §1, §2, §3, §4, §5

[13] = tested on: Abutilon theophrasti (velvetleaf); assay: Greenhouse postemergence herbicidal effect, velvetleaf (ABUTH); conditions: Example 4; Glufosinate 112.5 g ai/ha alone; 20-22 d
Source text: as §1, §2
(§6) Emulsifiable concentrates of each of each pyridine carboxylate herbicide (Compound A or Compound B) were prepared at 100 grams acid equivalent per liter (g ae/L). The emulsifiable concentrates also included a safener, cloquintocet-mexyl, at 120 grams active ingredient per liter (g ai/L). […]
as §5

[14] = tested on: Viola tricolor (wild pansy); assay: Greenhouse postemergence herbicidal effect, wild pansy (VIOTR); conditions: 20-22 d
Source text: as §1, §2, §3, §4, §5

[15] = tested on: Stellaria media (chickweed); assay: Greenhouse postemergence herbicidal effect, chickweed (STEME); conditions: Example 5; Glufosinate 70 g ai/ha alone; 20-22 d
Source text: as §1, §2, §6, §5

[16] = tested on: Echinochloa crus-galli (barnyardgrass); assay: Greenhouse postemergence herbicidal effect, barnyardgrass (ECHCG); conditions: Example 5; Glufosinate 70 g ai/ha alone; 20-22 d
Source text: as §1, §2, §6, §5

[17] = tested on: Euphorbia heterophylla (poinsettia); assay: Greenhouse postemergence herbicidal effect, poinsettia (EPHHL); conditions: Example 5; Glufosinate 70 g ai/ha alone; 20-22 d
Source text: as §1, §2, §6, §5

[18] = tested on: Sorghum vulgare (grain sorghum); assay: Greenhouse postemergence herbicidal effect, grain sorghum (SORVU); conditions: Example 5; Glufosinate 70 g ai/ha alone; 20-22 d
Source text: as §1, §2, §6, §5

[19] = tested on: Cyperus esculentus (nutsedge); assay: Greenhouse postemergence herbicidal effect, nutsedge (CYPES); conditions: Example 5; Glufosinate 70 g ai/ha alone; 20-22 d
Source text: as §1, §2, §6, §5

[20] = tested on: Rumex obtusifolius (broad-leaf dock); assay: Greenhouse postemergence herbicidal effect, broad-leaf dock (RUMOB); conditions: Example 5; Glufosinate 70 g ai/ha alone; 20-22 d
Source text: as §1, §2, §6, §5

[21] = tested on: Ipomoea hederacea (ivyleaf morningglory); assay: Greenhouse postemergence herbicidal effect, ivyleaf morningglory (IPOHE); conditions: Example 5; Glufosinate 70 g ai/ha alone; 20-22 d
Source text: as §1, §2, §6, §5

[22] = tested on: Helianthus annuus (common sunflower); assay: Greenhouse postemergence herbicidal effect, common sunflower (HELAN); conditions: Example 5; Glufosinate 70 g ai/ha alone; 20-22 d
Source text: as §1, §2, §6, §5

[23] = Example 4, Glufosinate 112.5 g ai/ha alone
[24] = Example 5, Glufosinate 70 g ai/ha alone
[25] = Example 6, Glufosinate 112.5 g ai/ha alone

## CP(=O)(O)CCC(N)C(=O)O (stereo not shown) [Glufosinate, 2-amino-4-(hydroxy(methyl)phosphinyl)butanoic acid]
[1]
  % visual injury, Obs: 20%
[2]; [23]
  % visual injury, Obs: 10%
[2]; [24]
  % visual injury, Obs: 70%
[2]; [25]
  % visual injury, Obs: 15%
[3]
  % visual injury, Obs: 25%
[4]
  % visual injury, Obs: 53%
Kochia scoparia (kochia); [23]
  % visual injury, Obs: 10%
Kochia scoparia (kochia); [24]
  % visual injury, Obs: 15%
Kochia scoparia (kochia); [25]
  % visual injury, Obs: 25%
[5]; Example 4
  % visual injury, Obs: 5%
[5]; Example 6
  % visual injury, Obs: 5%
[6]
  % visual injury, Obs: 65%
[7]
  % visual injury, Obs: 65%
[8]; [23]
  % visual injury, Obs: 8%
[8]; [24]
  % visual injury, Obs: 75%
[8]; [25]
  % visual injury, Obs: 73%
[9]
  % visual injury, Obs: 35%
[10]
  % visual injury, Obs: 35%
[11]
  % visual injury, Obs: 33%
[12]
  % visual injury, Obs: 33%
[13]
  % visual injury, Obs: 20%
[14]; [23]
  % visual injury, Obs: 23%
[14]; [24]
  % visual injury, Obs: 20%
[15]
  % visual injury, Obs: 68%
[16]
  % visual injury, Obs: 30%
[17]
  % visual injury, Obs: 80%
[18]
  % visual injury, Obs: 58%
[19]
  % visual injury, Obs: 13%
[20]
  % visual injury, Obs: 73%
[21]
  % visual injury, Obs: 82%
[22]
  % visual injury, Obs: 98%
